The source of these data is PMC6264423, “Phytochemical and Cytotoxic Investigations of Curcuma mangga Rhizomes” (Molecules, 2011).

≈ marks a conversion by molar mass, not a printed value.

Data set [1] has as its system non-cancer human fibroblast cell line (MRC-5).
Procedure: (§1) In-vitro neutral red cytotoxicity assay: All cancer cell lines were purchased from the American Type Culture Collection (ATCC, USA), medium like RPMI 1640, McCOY’S 5A, Eagle Minimum Essential Medium (EMEM) from Sigma-Aldrich, USA. The supplements or antibiotics such as foetal bovine serum, penicillin/streptomycin (100 μg/mL), amphotericin B (50 μg/mL), tripsin-EDTA (100X) were purchased from PAA Lab, Austria as well as sodium pyruvate (11 mg/mL) from Sigma-Aldrich, USA. The cells were cultured in a Shel Lab water-jacketed CO2 incubator with 25 cm^3 tissue culture flasks (Nunc, Denmark), which was observed routinely under inverted microscope (Leica DMI3000 B, Germany) for any contamination and seeded into 96-well flat bottom microtiter plate (Nunc, Denmark). The extract or pure compounds were dissolved in dimethyl sulfoxide (DMSO, Molecular Biology Grade, >99.9%) from Sigma-Aldrich, USA. The 96-well microtiter plate was agitated rapidly on a microtiter plate incubator shaker (LT Biomax 500) and absorbance of eluted dye measured at 540 nm using a ELISA microplate reader (EMax microplate reader of Molecular Devices, USA). Cell lines such as MCF-7, A549, Ca Ski and HT-29 were maintained in RPMI 1640 medium, HCT 116 in McCOY’S 5A Medium, KB and MRC-5 cells in Eagle Minimum Essential Medium (EMEM). All of these media were supplemented with 10% foetal bovine serum (FBS), penicillin/streptomycin, amphotericin B and only additional sodium pyruvate in EMEM. The cells were cultured in tissue culture flask in 5% CO2 incubator kept at 37 °C in a humidified atmosphere and observed routinely under inverted microscope from any contaminations. Each fresh medium was replaced every 2 or 3 days until cell confluence was achieved and the cells were detached by using tripsin-EDTA.
Data set [2] deals with hormone-dependent breast cell line (MCF-7). Kind of data set: in-vitro neutral red cytotoxicity assay, MCF-7. Type of data set: cell-based. As to conditions: Homo sapiens, MCF7, mean ± SD of three replicates.
Procedure: as §1
Data set [3] deals with nasopharyngeal epidermoid cell line (KB). In words: in-vitro neutral red cytotoxicity assay, KB. Particulars: Homo sapiens, mean ± SD of three replicates. Type of data set: cell-based.
Procedure: as §1
A further data set deals with lung cell line (A549). Kind of data set: in-vitro neutral red cytotoxicity assay, A549. The data set is classed as cell-based. As to conditions: Homo sapiens, mean ± SD of three replicates.
Data set [4] has as its system cervical cell line (Ca Ski). In words: in-vitro neutral red cytotoxicity assay, Ca Ski. The data set is classed as cell-based. As to conditions: Homo sapiens, mean ± SD of three replicates.
Procedure: as §1
The test system of data set [5] is colon cell line (HCT 116). Kind of data set: in-vitro neutral red cytotoxicity assay, HCT 116. Type of data set: cell-based. Particulars: Homo sapiens, mean ± SD of three replicates.
Procedure: as §1
The next data set relates to colon cell line (HT-29). In words: in-vitro neutral red cytotoxicity assay, HT-29. The data set is classed as cell-based. Particulars: Homo sapiens, mean ± SD of three replicates.
Data set [6] deals with non-cancer human fibroblast cell line (MRC-5). In words: in-vitro neutral red cytotoxicity assay, MRC-5. As to conditions: MRC5, read-out: IC50 values, MRC-5.
Procedure: as §1
Data set [7] relates to human cancer cell lines (MCF-7, KB, A549, Ca Ski, HCT 116, HT-29). Kind of data set: in-vitro neutral red cytotoxicity assay, panel of six cancer cell lines. The data set is classed as cell-based.
Procedure: In-vitro neutral red cytotoxicity assay: All cancer cell lines were purchased from the American Type Culture Collection (ATCC, USA), medium like RPMI 1640, McCOY’S 5A, Eagle Minimum Essential Medium (EMEM) from Sigma-Aldrich, USA. The supplements or antibiotics such as foetal bovine serum, penicillin/streptomycin (100 μg/mL), amphotericin B (50 μg/mL), tripsin-EDTA (100X) were purchased from PAA Lab, Austria as well as sodium pyruvate (11 mg/mL) from Sigma-Aldrich, USA. The cells were cultured in a Shel Lab water-jacketed CO2 incubator with 25 cm^3 tissue culture flasks (Nunc, Denmark), which was observed routinely under inverted microscope (Leica DMI3000 B, Germany) for any contamination and seeded into 96-well flat bottom microtiter plate (Nunc, Denmark). The extract or pure compounds were dissolved in dimethyl sulfoxide (DMSO, Molecular Biology Grade, >99.9%) from Sigma-Aldrich, USA. The 96-well microtiter plate was agitated rapidly on a microtiter plate incubator shaker (LT Biomax 500) and absorbance of eluted dye measured at 540 nm using a ELISA microplate reader (EMax microplate reader of Molecular Devices, USA). Cell lines such as MCF-7, A549, Ca Ski and HT-29 were maintained in RPMI 1640 medium, HCT 116 in McCOY’S 5A Medium, KB and MRC-5 cells in Eagle Minimum Essential Medium (EMEM). […]

As a reminder, the IC50 is the concentration needed to halve the response being measured.

Procedure for colon cell line (HT-29): as §1
Procedure for lung cell line (A549): as §1

As for Ethyl acetate, the “effect on the normal human fibroblast cell line (in words)” value in data set [1] is “caused no damage”.

With `C=C1CCC2C(C)(C)CCC[C@]2(C)C1C/C=C(/C=O)CC=O` (stereo partly shown) [Compound 1, (E)-labda-8(17),12-dien-15,16-dial], the IC50 is 4.3 ± 1.3 µg/mL (≈ 14.2 µM) in [2]; 14.5 ± 0.87 µg/mL (≈ 47.9 µM) in data set [3]; 19.9 ± 0.38 µg/mL (≈ 65.8 µM) in the data set on lung cell line (A549); 12.1 ± 0.35 µg/mL (≈ 40 µM) in data set [4]; 7.6 ± 0.23 µg/mL (≈ 25.1 µM) in [5]; 6.3 ± 0.26 µg/mL (≈ 20.8 µM) in the data set with colon cell line (HT-29). For the same compound, the IC50 in data set [6] came to 8.9 ± 0.49 µg/mL (≈ 29.4 µM).

Regarding `C=C1CC[C@H]2C(C)(C)CCC[C@]2(C)[C@H]1CC=C(C=O)CC(=O)O` (stereo in doubt) [Compound 3, zerumin A], the IC50 in [2] is 8.7 ± 0.29 µg/mL (≈ 27.3 µM); in [3] it was 11.7 ± 1.15 µg/mL (≈ 36.7 µM); in the data set with lung cell line (A549) it was 9.2 ± 0.62 µg/mL (≈ 28.9 µM); in [4] it was 14.2 ± 0.06 µg/mL (≈ 44.6 µM); in data set [5], 9.3 ± 0.5 µg/mL (≈ 29.2 µM); in the data set on colon cell line (HT-29), 14.9 ± 0.4 µg/mL (≈ 46.8 µM). Also, the IC50 in data set [6] was 16.2 ± 0.25 µg/mL (≈ 50.9 µM).

For the compound `COc1cccc2c1C(=O)c1c(O)c3c(c(O)c1C2=O)C[C@@](O)(C(=O)CO)C[C@@H]3O[C@H]1C[C@H](N)[C@H](O)[C@H](C)O1` [Doxo *, Doxorubicin, reference compound], the IC50 in data set [2] is 0.05 ± 0.01 µg/mL (≈ 0.092 µM); in [3] it was 0.27 ± 0.01 µg/mL (≈ 0.497 µM); with lung cell line (A549) it was 0.58 ± 0.01 µg/mL (≈ 1.07 µM); in data set [4], 0.18 ± 0.06 µg/mL (≈ 0.331 µM); in data set [5] it was 0.24 ± 0.04 µg/mL (≈ 0.442 µM); in the data set with colon cell line (HT-29) it was 0.33 ± 0.03 µg/mL (≈ 0.607 µM). For the same compound, the IC50 in data set [7] (Homo sapiens, span over the six cancer cell lines, read-out: IC50 values across all tested human cancer cell lines) was 0.05 to 0.58 µg/mL (≈ 0.092 to 1.07 µM); in data set [6], 0.4 ± 0.03 µg/mL (≈ 0.736 µM).

Take `C=C1CCC2C(C)(C)CCC[C@]2(C)C1/C=C/C(C)=O` (stereo partly shown) [Compound 2, (E)-15,16-bisnorlabda-8(17),11-dien-13-one]: the IC50 (in [2]; in data set [3]; in the data set with lung cell line (A549); in [4]; in data set [5]; in the data set with colon cell line (HT-29)) was above 100 µg/mL throughout. Moreover, in [6], the IC50 is above 100 µg/mL. Also, the “cytotoxic activity on the investigated human cancer cell lines (in words)” value in [7] (all investigated human cancer cell lines) was “no cytotoxic activity”.
